Here are results for 13 compounds from ChEMBL document CHEMBL5390307, “Sila-CBD Derivatives as Inhibitors of Heme-Induced NLRP3 Inflammasome: Application in Hemolytic Diseases” (ACS Med Chem Lett, 2023).

Series [1] concerns Mus musculus. The experiment in a line: Antiinflammatory activity against LPS/HEME-induced Balb/C mouse model assessed as reduction of IL-1 beta secretion at 1 mg/kg, ip administered for 30 mins followed by LPS for 4 hrs incubation and later stimulated with HEME for 1 hrs by ELISA. In kind it is functional, organism-based. The note with it: time 330.0 min. A general note: ELISA stands for enzyme-linked immunosorbent assay.

The subject of a further series is J774.A1. The experiment in a line: Cytotoxicity against mouse J774.A1 cells assessed as reduction in cell viability at 10 uM incubated for 24 hrs by MTT assay. The format is toxicity, cell-based. The note with it: j774.a1, 24 h.
Series [2] has as its target NACHT, LRR and PYD domains-containing protein 3 (Homo sapiens) (UniProt Q96P20). The experiment in a line: Inhibition of NLRP3 mediated in HEME-induced inflammasome in human PMA differentiated THP-1 cells assessed as reduction in IL-1beta level in presence of LPS at 10 uM pretreated for 1 hr followed by hemin addition measured after 1 hrs by ELISA method relative to control. In kind it is cell-based. The note with it: time 2.0 hrs.

Series [3] has the same target. The experiment in a line: Inhibition of NLRP3 mediated in HEME-induced inflammasome in human PMA differentiated THP-1 cells assessed as reduction in IL-1beta level in presence of LPS at 1 uM pretreated for 1 hr followed by hemin addition measured after 1 hrs by ELISA method. The format is cell-based. The note with it: time 2.0 hrs.
The target is the same in series [4]. The experiment in a line: Inhibition of NLRP3 mediated in HEME-induced inflammasome in human PMA differentiated THP-1 cells assessed as reduction in IL-1beta level in presence of LPS at 0.1 to 10 uM pretreated for 1 hr followed by hemin addition measured after 1 hrs by ELISA method. In kind it is cell-based. The note with it: dose 0.1-10 µM, time 2.0 hrs.
Series [5] can be described thus: Metabolic stability in mouse liver microsomes in presence of NADPH measured after 5 mins by single ion monitoring mode based LC-MS method. The format is ADME, Microsome. A general note: Microsomes from liver hold many membrane-bound enzymes, among them those of drug oxidation.
A short description of series [6]: Metabolic stability in mouse liver microsomes assessed as drug degradation measured after 5 mins in absence of NADPH by single ion monitoring mode based LC-MS method relative to control. The format is ADME, Microsome. The note with it: read-out: Drug degradation.
The target in series [7] is NACHT, LRR and PYD domains-containing protein 3 (Mus musculus) (UniProt Q8R4B8). The experiment in a line: Inhibition of NLRP3 inflammasome in mouse J774.A1 cells assessed as reduction in IL-6 in presence of LPS at 0.1 to 1 uM pretreated for 1 hr followed by LPS stimulation measured after 24 hrs by ELISA method. The format is cell-based. The note with it: dose 0.1-1 µM, time 25.0 hrs.
Sequence of NACHT, LRR and PYD domains-containing protein 3 (Mus musculus) (Q8R4B8 whole entry, the tested form may be a part): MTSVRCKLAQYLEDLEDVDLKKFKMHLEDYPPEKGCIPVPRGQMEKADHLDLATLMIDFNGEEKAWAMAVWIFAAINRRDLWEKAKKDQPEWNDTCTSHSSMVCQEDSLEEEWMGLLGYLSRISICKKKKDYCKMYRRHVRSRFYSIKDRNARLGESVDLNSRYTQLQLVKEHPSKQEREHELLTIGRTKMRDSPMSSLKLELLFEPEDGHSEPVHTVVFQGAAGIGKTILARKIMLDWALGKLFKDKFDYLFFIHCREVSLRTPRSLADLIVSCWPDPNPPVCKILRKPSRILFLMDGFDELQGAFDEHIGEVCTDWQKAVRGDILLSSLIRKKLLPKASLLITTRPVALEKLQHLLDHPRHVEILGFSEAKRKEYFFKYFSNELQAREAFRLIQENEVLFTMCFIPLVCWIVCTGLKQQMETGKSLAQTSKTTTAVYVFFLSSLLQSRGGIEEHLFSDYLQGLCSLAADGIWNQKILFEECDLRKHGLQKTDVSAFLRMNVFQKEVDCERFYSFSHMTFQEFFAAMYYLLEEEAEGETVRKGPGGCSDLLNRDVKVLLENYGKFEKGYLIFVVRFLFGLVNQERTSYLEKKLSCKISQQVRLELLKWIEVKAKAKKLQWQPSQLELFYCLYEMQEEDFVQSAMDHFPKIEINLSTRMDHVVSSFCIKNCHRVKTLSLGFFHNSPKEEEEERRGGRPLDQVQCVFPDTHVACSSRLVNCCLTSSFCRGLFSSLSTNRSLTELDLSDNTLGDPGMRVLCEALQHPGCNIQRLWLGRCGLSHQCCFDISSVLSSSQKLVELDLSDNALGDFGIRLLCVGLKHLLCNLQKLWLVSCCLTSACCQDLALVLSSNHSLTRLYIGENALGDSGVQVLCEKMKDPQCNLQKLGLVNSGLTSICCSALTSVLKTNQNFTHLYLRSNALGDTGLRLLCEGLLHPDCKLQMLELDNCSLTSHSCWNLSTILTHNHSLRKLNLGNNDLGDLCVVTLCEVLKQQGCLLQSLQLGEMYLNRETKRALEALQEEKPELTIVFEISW

Series [8] shares this target. The experiment in a line: Inhibition of NLRP3 inflammasome in mouse J774.A1 cells assessed as reduction in TNF-alpha in presence of LPS at 10 uM pretreated for 1 hr followed by LPS stimulation measured after 24 hrs by ELISA method. In kind it is cell-based. The note with it: time 25.0 hrs.
The target in series [9] is NACHT, LRR and PYD domains-containing protein 3 (Homo sapiens) (UniProt Q96P20). The experiment in a line: Inhibition of NLRP3 mediated in HEME-induced inflammasome in human PMA differentiated THP-1 cells assessed as reduction in IL-1beta level in presence of LPS at 0.1 uM pretreated for 1 hr followed by hemin addition measured after 1 hrs by ELISA method relative to control. In kind it is cell-based. The note with it: time 2.0 hrs.
Sequence of NACHT, LRR and PYD domains-containing protein 3 (Homo sapiens) (Q96P20 whole entry, the tested form may be a part): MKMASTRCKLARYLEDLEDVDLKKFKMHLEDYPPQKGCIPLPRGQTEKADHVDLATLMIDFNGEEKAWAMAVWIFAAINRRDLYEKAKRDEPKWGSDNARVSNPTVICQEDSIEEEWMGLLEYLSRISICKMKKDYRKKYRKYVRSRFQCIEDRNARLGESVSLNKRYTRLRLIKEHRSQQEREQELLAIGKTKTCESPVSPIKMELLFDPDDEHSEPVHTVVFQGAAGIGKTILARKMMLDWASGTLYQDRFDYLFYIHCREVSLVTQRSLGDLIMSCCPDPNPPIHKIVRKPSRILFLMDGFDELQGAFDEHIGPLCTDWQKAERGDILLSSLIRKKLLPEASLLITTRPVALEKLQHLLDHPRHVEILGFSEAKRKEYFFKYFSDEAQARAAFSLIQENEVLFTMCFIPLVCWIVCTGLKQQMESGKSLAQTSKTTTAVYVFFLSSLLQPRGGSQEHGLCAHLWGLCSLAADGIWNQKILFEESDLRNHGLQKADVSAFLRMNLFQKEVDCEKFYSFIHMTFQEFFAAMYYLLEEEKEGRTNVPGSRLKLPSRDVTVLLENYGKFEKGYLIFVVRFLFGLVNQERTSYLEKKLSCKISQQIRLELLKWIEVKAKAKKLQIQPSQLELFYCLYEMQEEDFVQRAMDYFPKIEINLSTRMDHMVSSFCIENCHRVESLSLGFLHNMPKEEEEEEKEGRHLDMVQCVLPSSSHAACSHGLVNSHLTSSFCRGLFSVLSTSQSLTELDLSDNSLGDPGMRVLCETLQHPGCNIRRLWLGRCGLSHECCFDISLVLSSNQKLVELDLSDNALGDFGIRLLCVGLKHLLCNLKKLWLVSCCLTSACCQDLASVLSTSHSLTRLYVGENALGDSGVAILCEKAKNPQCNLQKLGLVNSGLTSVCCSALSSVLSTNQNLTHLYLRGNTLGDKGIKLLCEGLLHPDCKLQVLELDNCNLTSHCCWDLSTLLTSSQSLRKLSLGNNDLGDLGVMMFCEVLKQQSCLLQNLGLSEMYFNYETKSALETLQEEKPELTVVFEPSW

Series [10] has as its target NACHT, LRR and PYD domains-containing protein 3 (Mus musculus) (UniProt Q8R4B8). The experiment in a line: Inhibition of NLRP3 inflammasome in mouse J774.A1 cells assessed as reduction in TNF-alpha in presence of LPS at 0.1 to 1 uM pretreated for 1 hr followed by LPS stimulation measured after 24 hrs by ELISA method. The format is cell-based. The note with it: dose 0.1-1 µM, time 25.0 hrs.

Series [11] is described as follows: Metabolic stability in mouse liver microsomes assessed as drug degradation in the presence of NADPH measured after 5 mins by LC-MS method. The format is ADME, Microsome.
Series [12] deals with NACHT, LRR and PYD domains-containing protein 3 (Homo sapiens) (UniProt Q96P20). The experiment in a line: Inhibition of NLRP3 mediated in HEME-induced inflammasome in human PMA differentiated THP-1 cells assessed as reduction in IL-1beta level in presence of LPS at 1 uM pretreated for 1 hr followed by hemin addition measured after 1 hrs by ELISA method relative to control. The format is cell-based. The note with it: time 2.0 hrs.

In series [13] the test system is Mus musculus. The experiment in a line: Antiinflammatory activity against LPS/HEME-induced Balb/C mouse model assessed as reduction of IL-1 beta secretion at 30 mg/kg, ip administered for 30 mins followed by LPS for 4 hrs incubation and later stimulated with HEME for 1 hrs by ELISA. The format is functional, organism-based. The note with it: time 330.0 min.
For series [14], the system named is Mus musculus. The experiment in a line: Antiinflammatory activity against LPS/HEME-induced Balb/C mouse model assessed as reduction of IL-1 beta secretion at 10 mg/kg, ip administered for 30 mins followed by LPS for 4 hrs incubation and later stimulated with HEME for 1 hrs by ELISA. In kind it is functional, organism-based. The note with it: time 330.0 min.
A short description of series [15]: Metabolic stability in human liver microsomes assessed as drug degradation measured after 5 mins by LC-MS method relative to control. The format is ADME, Microsome. The note with it: read-out: Drug degradation.
Series [16] has as its target NACHT, LRR and PYD domains-containing protein 3 (Homo sapiens) (UniProt Q96P20). The experiment in a line: Inhibition of NLRP3 mediated in HEME-induced inflammasome in human PMA differentiated THP-1 cells assessed as reduction in IL-1beta level in presence of LPS at 10 uM pretreated for 1 hr followed by hemin addition measured after 1 hrs by ELISA method. The format is cell-based. The note with it: time 2.0 hrs.

Series [17] concerns the target NACHT, LRR and PYD domains-containing protein 3 (Mus musculus) (UniProt Q8R4B8). The experiment in a line: Inhibition of NLRP3 inflammasome in mouse J774.A1 cells assessed as reduction in IL-6 in presence of LPS at 10 uM pretreated for 1 hr followed by LPS stimulation measured after 24 hrs by ELISA method. The note with it: time 25.0 hrs. The format is cell-based.

One may read the inhibition as the percentage by which the read-out fell short of the control.

The structures appear in SMILES notation. Activity calls are given as the source filed them. The calls are words filed in the database; no cut-off is given here. Where only a bound is given, the exact number is not on record here.

With `COc1cc2c(c(OC)c1OC)-c1ccc(OC)c(=O)cc1[C@@H](NC(C)=O)CC2`, in the series with Mus musculus [1], the outcome was Active.

Take `CCCCCC[Si](C)(C)c1cc(O)c(C/C=C(\C)CCC=C(C)C)c(O)c1`: the Activity entry in the series with J774.A1 is given as “Non-Toxic”. Besides, the inhibition in series [2] turned out to be 60%. Further, in [3], the inhibition entry was “Active”.

As for `CC(C)=CCC/C(C)=C/Cc1c(O)cc([Si](C)(C)C)cc1O`, in the series with J774.A1, the Activity result is reported as “Non-Toxic”.

For `CCCCCc1cc(O)c(C/C=C(\C)CCC=C(C)C)c(O)c1`, the inhibition entry in series [3] is “Active”.

As for `C=C(C)[C@@H]1CCC(C)=C[C@H]1c1c(O)cc([Si](C)(C)CCCCCC)cc1O`, the Activity result with J774.A1 is “Non-Toxic”.

With `CCCCCC1=CC(=O)C(C/C=C(\C)CCC=C(C)C)=C(O)C1=O`, the inhibition entry in series [4] was “inactive”.

Regarding `C=C(C)[C@@H]1CCC(C)=C[C@H]1C1=C(O)C(=O)C(CCCCC)=CC1=O`, the inhibition result in series [4] was “inactive”. Further, the Stability entry in [5] was “Stable”. Besides, the metabolised at 5 min in [6] is below 20%.

In the case of `C=C(C)[C@@H]1CCC(C)=C[C@H]1C1=C(O)C(=O)C([Si](C)(C)C)=CC1=O`, the Activity entry in the series with J774.A1 is “Non-Toxic”. The inhibition result in series [7], in series [8] and in [10] was “Active” throughout. The inhibition is above 20% in series [9], above 80% in series [2] and above 50% in [12]. In [11], the Drug degradation result is “Stable”. In addition, the outcome in the series with Mus musculus [13] and with Mus musculus [14] was Active. The metabolised at 5 min in series [15] is 10%.

For the compound `CC(C)=CCC/C(C)=C/CC1=C(O)C(=O)C([Si](C)(C)C)=CC1=O`, the Activity entry in the series on J774.A1 is recorded as “Non-Toxic”. For the same compound, the inhibition entry in series [7] and in [10] was “inactive” in each case. Also, the inhibition entry in series [8], in series [3] and in series [16] was “Active” in each case.

With `CCCC[Si](C)(C)C1=CC(=O)C(C/C=C(\C)CCC=C(C)C)=C(O)C1=O`, the Activity result in the series with J774.A1 was “Non-Toxic”. Besides, the inhibition result in series [7] and in [10] was “inactive” each time. In addition, the inhibition result in [17], in series [3] and in [16] was “Active” each time.

`C=C(C)[C@@H]1CCC(C)=C[C@H]1c1c(O)cc([Si](C)(C)CCCC)cc1O`: the Activity result with J774.A1 is on record as “Non-Toxic”.

As to `CCCCCC[Si](C)(C)C1=CC(=O)C(C/C=C(\C)CCC=C(C)C)=C(O)C1=O`, the Activity entry with J774.A1 is listed as “Non-Toxic”. The inhibition result in series [7] and in series [10] was “inactive” each time. The inhibition result in series [17], in series [3] and in series [16] was “Active” in each case.

`CCCC[Si](C)(C)c1cc(O)c(C/C=C(\C)CCC=C(C)C)c(O)c1`: the Activity entry with J774.A1 is recorded as “Non-Toxic”.
